Measurements published in BigSolDB 2.1.

C[C@H](O)[C@@H](O)[C@@H](O)[C@H](O)C=O
solubility (mole fraction)
Settings | in acetone | in ethanol | in isopropanol | in methanol | in water
288.15 K | 0.00023 | 0.00032 | 0.00014 | 0.00216 | 0.0512
293.15 K | 0.00025 | 0.00038 | 0.00024 | 0.00244 | –
298.15 K | 0.00028 | 0.00043 | 0.00032 | 0.00275 | 0.0979
303.15 K | 0.00032 | 0.00057 | 0.00043 | 0.00307 | 0.129
308.15 K | 0.00038 | 0.00071 | 0.00056 | 0.00345 | 0.174
